Counter-ions that a name gives are not always drawn.
Tests used:
[1] = tested on: human and rabbit citrated platelet-rich plasma; assay: platelet aggregation, citrated platelet-rich plasma in a chronolog aggregometer (agonistic and antagonistic activity vs ADP); type: cell-based; settings: 20 mM and 2 μM (so in the source), inhibition of aggregation by 2 μM ADP, or antagonism of 5 mM prostacyclin
Protocol: Effects of prostacyclin analogs on platelet aggregation was evaluated using human and rabbit citrated platelet-rich plasma in a chronolog aggregometer at […]. Each of the analogs was tested at two concentrations (20 mM and 2 μM) for agonistic activity (inhibition of aggregation induced by 2 μM ADP) and antagonistic activity (prevention of the inhibition of ADP-induced aggregation by 5 mM prostacyclin).

[2] = tested on: cat coronary artery; assay: isolated perfused cat coronary artery, perfusion pressure; settings: isolated perfused cat right coronary artery, 37° C., change in perfusion pressure
Protocol: Effects of prostacyclin analogs on isolated perfused cat coronary arteries were measured as follows.
Cats of either sex (2.5-3.5 kg) were anesthetized with sodium pentobarbital (30 mg/kg) given intravenously. Hearts were rapidly excised and placed in oxygenated (95% O2 +5% CO2) ice-cold Krebs-Henseleit (K-H) solution of the following millimolar composition: NaCl, 118; KCl, 4.75; CaCl2.H2 O, 2.54; KH2 PO4, 1.19; MgSO4.7H2 O, 1.19; NaHCO3, 12.5; glucose, 10.00. A 20-gauge stainless steel cannula was inserted into the right coronary artery via the coronary ostium. Distal to the cannula, approximately 1 cm of coronary artery was dissected free of surrounding tissue. The section of right coronary artery with the cannula in place was excised from the heart and immediately transferred to a constant flow perfusion apparatus.
The perfusion apparatus consists of a reservoir containing 20 ml of warm (37° C.) oxygenated (95% O2 +5% CO2) K-H solution which bathes the coronary artery and serves as recirculating perfusate. An increase in perfusion pressure indicates vasoconstriction, whereas a decrease in perfusion pressure signifies vasodilation. Following an initial 1 hr. equilibrium period, vascular responsiveness was established by adding 25 mM KCl. After washing with fresh K-H solution for 20-30 mins., the preparation achieved a relatively constant low basal tone. Basal perfusion pressure averaged 50±2.5 mm Hg. Fresh K-H dilutions of stock prostacyclin analog concentrations were added to the perfusate reservoir in 0.1-0.2 ml volumes. Changes in perfusion pressure in response to prostacyclin analog addition generally plateaus within 5 mins. of administration.

[3] = half-life in saline / stability in solution (Table 1); type: physicochemical; settings: 250° C. (so in the source); for half-life: read-out: t 1/2 saline
Description: The removal of the protecting groups R^1, R^2 and R^3 from the resulting products of the oxidation, i.e, the allylic oxygen cyclic ethers or sulfones or the vinylic sulfoxides, or sulfones, can be carried out with acid or base or sequentially with both, if necessary, and yields prostacyclin isomers and analogs. A particularly useful prostacyclin sulfur analog, 6,9α-thiaprostacyclin ester can be obtained by reducing a 6,9α-sulfoxaprostacyclin ester--obtained as described supra--with a reducing agent such as trimethylsilyliodide.

[4] = stability of the sodium salt in solution (preparative examples); type: physicochemical; settings: sodium salt after hydrolysis with NaOH in 90% ethanol
Protocol: Acidification of this compound in aqueous solutions leads to the corresponding acid which can be extracted with ether and purified chromatographically.
The critical intermediate for this synthesis is 11,15-diol, 5-phenylseleno,6,9α-thiaprostacyclin methyl ester IV (R^1 =--CH3, R^2 =R^3 =H, Z=--S--). The preparation of this intermediate is described in Example 10a. When this intermediate was oxidized with 3.3 equivalents of m-chloroperbenzoic acid in methylene chloride -78°→20° C. for 24 hours, the 6,9α-sulfoprostacyclin methyl ester IX was produced in 85% yield (IX, R^1 =--CH3, R^2 =R^3 =H, n=2). It was isolated by prep layer chromatography and hydrolyzed with NaOH in 90% ethanol at 25° C. to afford the corresponding sodium salt IX.

[5] = solubility (analytical data of methyl ester); type: physicochemical
[6] = background statement; cited from earlier work

t 1/2 saline [3] [h]	half-life [3] [h]	Compound	Biological Activity: Platelet Aggregation [1]	Biological Activity: Cat Coronary Artery [2]	also measured
> 24		6,9-sulfo-4(E)isoprostacyclin, 6βisomer	Antagonist	Constrictor	
> 3		CCCCCC(O)/C=C/C1C(O)CC2OC(/C=C/CCC(=O)O)CC21 (stereo not drawn) [4(E)-9-deoxy-6,9α-epoxy-Δ^4 -isoprostacyclin(6β)]	Inhibitor(P)	Constrictor(P)	
	> 24	CCCCC[C@H](O)/C=C/[C@@H]1[C@H]2C/C(=C\CCCC(=O)O)[S+]([O-])[C@H]2C[C@H]1O (stereo partly shown) [6,9-sulfoxa-5(E)prostacyclin]	Little activity	Little activity	
	> 24	CCCCC[C@H](O)/C=C/[C@@H]1[C@H]2C/C(=C/CCCC(=O)O)[S+]([O-])[C@H]2C[C@H]1O (stereo partly shown) [6,9-sulfoxa-5(Z)prostacyclin]	Little activity	Little activity	

More lines, now with the values behind:

Compound	t 1/2 saline [3] [h]	half-life [3] [h]	Biological Activity: Platelet Aggregation [1]	Biological Activity: Cat Coronary Artery [2]	also measured
6,9-sulfo-4(E)isoprostacyclin, 6αisomer	> 24		Inhibitor	Constrictor(M)	
CCCCCC(O)/C=C/C1C(O)CC2OC(/C=C/CCC(=O)O)CC21 (stereo not drawn) [4(E)-9-deoxy-6,9α-epoxy-Δ^4 -isoprostacyclin(6α)]	> 3		Antagonist	Constrictor	
CCCCC[C@H](O)/C=C/[C@@H]1[C@H]2C/C(=C/CCCC(=O)O)S(=O)(=O)[C@H]2C[C@H]1O [5(Z)-6,9α-sulfoprostacyclin sodium salt]					stability of sodium salt in solution [4]: quantitatively stable in aqueous solution
CCCCC[C@H](O)/C=C/[C@@H]1[C@H]2C/C(=C/CCCC(=O)O)[S+]([O-])[C@H]2C[C@H]1O (stereo partly drawn) [5(Z)-6,9α-sulfoxaprostacyclin sodium salt]					stability of sodium salt in solution [4]: stable solution
CCCCC[C@H](O)/C=C/[C@@H]1[C@H]2CC(/C=C/CCC(=O)OC)S(=O)(=O)[C@H]2C[C@H]1O (stereo partly shown) [6,9-sulfo-4(E) is oprostacyclin methyl ester]					solubility [5]: CH2 Cl2 and common organic solvents
CCCCC[C@H](O)/C=C/[C@@H]1[C@H]2C/C(=C/CCCC(=O)O)S(=O)(=O)[C@H]2C[C@H]1O [6,9-sulfo-5(Z)prostacyclin]		> 24	Antagonist(M)	Constrictor(M)	
CCCCC[C@H](O)/C=C/[C@@H]1[C@H]2C/C(=C/CCCC(=O)O)S[C@H]2C[C@H]1O [6,9α-Thia-5(Z)prostacyclin]		> 3	Very little activity, if any	Very little activity, if any	
CCCCC[C@H](O)/C=C/[C@@H]1[C@H]2C/C(=C/CCCC(=O)OC)S(=O)(=O)[C@H]2C[C@H]1O [6,9α-sulfoprostacyclin methyl ester]					solubility [5]: common organic solvents
CCCCC[C@H](O)/C=C/[C@@H]1[C@H]2C/C(=C/CCCC(=O)O)O[C@H]2C[C@H]1O [Natural Prostacyclin, 6,9α-oxido-11α,15α-dihydroxyprosta-(Z)5, (E)13-dienoic acid, reference compound]			Inhibitor(P)	Dilator(P)	biological half-life [6]: 2 minutes
